Assay results published in US9994548B2, “Phenyl-substituted nicotinic ligands, and methods of use thereof” (Georgetown University, priority 2011, dated 2018).
pIC50, pKi: −log10 of the molar value. Read-outs that look alike come from different tables or passages of the source.

Key:
[1] = biological target: T1, α3β4 nAChR (Rattus norvegicus, UniProt P04757+P12392); assay: [3H]-epibatidine radioligand competition binding assay
T1 construct: expressed in transfected cells; host or cells: HEK 293 (KXα3β4R2)
Description: (§1) Stably transfected cell lines, tissue culture conditions, membrane preparation procedures and binding assays were described previously. Briefly, cultured cells at >80% confluence were removed from their flasks (80 cm^2) with a disposable cell scraper and placed in 10 mL of 50 mM Tris.HCl buffer (pH 7.4, 4° C.). The cell suspension was centrifuged at 10,000×g for 5 min and the pellet was collected. The cell pellet was then homogenized in 10 mL buffer with a polytron homogenizer and centrifuged at 36,000 g for 10 min at 4° C. The membrane pellet was resuspended in fresh buffer, and aliquots of the membrane preparation were used for binding assays. The concentration of [^3H]-epibatidine used was ˜500 pM for competition binding assays. […] Bound and free ligands were separated by vacuum filtration through Whatman GF/C filters treated with 0.5% polyethylenimine. The filter-retained radioactivity was measured by liquid scintillation counting. Specific binding was defined as the difference between total binding and nonspecific binding. Data from competition binding assays were analyzed using Prism 5 (GraphPad Software, San Diego, Calif.).
(§2) The in vitro binding affinities of the new ligands were measured for defined receptor subtypes (α2β2, α2β4, α3β2, α3β4, α4β2, α4β4, α6β2, α6β4, and α7) expressed in stably transfected cell lines. [^3H]Epibatidine ([^3H]EB) binds to the agonist recognition site of all of the defined receptor subtypes with high affinities. Rat forebrain homogenates were included to allow comparison between the heterologous and native α4β2 and α7 nAChRs. See FIG. 18 for binding affinity values (Ki) of the ligands at the three major nAChR subtypes (α3β4, […], and α7).
(§3) The binding affinities of all compounds synthesized for the receptor subtypes were examined in binding competition studies against [^3H]-epibatidine.

[2] = biological target: T2, α4β2 nAChR (Rattus norvegicus, UniProt P09483+P12390); assay: as above
T2 construct: expressed in transfected cells
Description: as §1, §2, §3

[3] = biological target: T3, α7 nAChR (Rattus norvegicus, UniProt Q05941); assay: as above; details: competition against [3H]-epibatidine
T3 construct: expressed in transfected cells
Description: as §1, §2, §3

[4] = biological target: T4, human α4β2 nAChRs (Homo sapiens, UniProt P17787+P43681); assay: 86Rb+ efflux assay in stably transfected cells; type: cell-based; details: for pIC50: 10 min pre-treatment before 100 μM (−)-nicotine, read-out: IC50(10′) α4β2 (desensitization potency)
T4 construct: expressed in transfected cells
Description: (§4) The cell line expressing rat α3β4 nAChRs, KXα3β4R2, was established previously by stably transfecting HEK 293 cells with combinations of rat nAChR α3 and β4 subunit genes. The cell line expressing human α4β2 nAChRs, YXα4β2H1, were established recently (Tuan et al., 2012, manuscript in preparation). These cell lines were maintained in minimum essential medium (MEM) supplemented with 10% fetal bovine serum, 100 units/mL penicillin G, […] streptomycin and selective antibiotics at 37° C. with 5% CO2 in a humidified incubator. Tissue culture medium and antibiotics were obtained from Invitrogen Corporation (Carlsbad, Calif.), unless otherwise stated. Fetal bovine serum and horse serum were provided by Gemini Bio-Products (Woodland, Calif.).
(§5) Functional properties of compounds at nAChRs expressed in the transfected cells were measured using ^86Rb^+ efflux assays as described previously. In brief, cells were plated into 24-well plates coated with poly-D-lysine. The plated cells were grown at 37° C. for 18 to 24 hour to reach 85-95% confluence. The cells were then incubated in growth medium (0.5 mL/well) containing ^86Rb^+ (2 μCi/mL) for 4 hour at 37° C. The loading mixture was then aspirated, and the cells were washed four times with 1 mL buffer (15 mM HEPES, 140 mM NaCl, 2 mM KCl, 1 mM MgSO4, 1.8 mM CaCl2, 11 mM Glucose, pH 7.4). One mL of buffer with or without compounds to be tested was then added to each well. After incubation for 2 min, the assay buffer was collected for measurements of ^86Rb^+ released from the cells. Cells were then lysed by adding 1 mL of 100 mM NaOH to each well, and the lysate was collected for determination of the amount of ^86Rb^+ that was in the cells at the end of the efflux assay. Radioactivity of assay samples and lysates was measured by liquid scintillation counting. Total loading (cpm) was calculated as the sum of the assay sample and the lysate of each well. The amount of ^86Rb^+ efflux was expressed as a percentage of ^86Rb^+ loaded. […] For obtaining EC50 and Emax values, stimulation curves were constructed in which 8 different concentrations of a ligand were included in the assay. […] EC50, Emax and IC50(10′) values were determined by nonlinear least-squares regression analyses (GraphPad, San Diego, Calif.).
(§6) Functional properties of the new ligands were determined by ^86Rb^1 efflux assays in cells expressing α3β4 and α4β2 nAChR subtypes. Functional activity of each new ligand was measured in terms of its agonism, antagonism and desensitization ability.
(§7) Agonist activity of each of the ligands was tested at eight concentrations. […] The full concentration-effect curves generated potency (EC50) and efficacy (Emax) of each ligand.
(§8) Though the ^86Rb^+ efflux assays were the main methodology used to determine functional properties, whole-cell current measurements were also used to verify the key experiments.

[5] = biological target: T5, rat α3β4 nAChRs (Rattus norvegicus, UniProt P04757+P12392); assay: 86Rb+ efflux assay in stably transfected cells; type: cell-based; details: for pIC50: 10 min pre-treatment before 100 μM (−)-nicotine, read-out: IC50(10′) α3β4 (desensitization potency); for agonist activity at α3β4 nAChRs: 86Rb+ efflux, rat α3β4
T5 construct: expressed in transfected cells; host or cells: HEK 293 (KXα3β4R2)
Description: as §4, §5, §6, §7, §8

[6] = system: nicotine self-administration; details: subcutaneous, previous studies; cited from earlier work
[7] = human, in vivo; cited from earlier work
[8] = competition against [3H]-epibatidine, stably transfected cell membranes, read-out: Ki α3β4
[9] = competition against [3H]-epibatidine, stably transfected cell membranes, read-out: Ki α4β2
[10] = preincubated with the cells for 10 min

Structure (SMILES)	pKi [1, 8]	pKi [2]	pKi [3]	pIC50 [4]	other results
Fc1ccc(C#Cc2cncc(OC[C@@H]3CCN3)c2)cc1 [VMY-2-101, (S)-3-(azetidin-2-ylmethoxy)-5-((4-fluorophenyl)ethynyl)pyridine]	6.19	10.08	5.70	8.10	
Fc1cc(F)cc(C#Cc2cncc(OC[C@@H]3CCN3)c2)c1 [VMY-2-113, (S)-3-(azetidin-2-ylmethoxy)-5-((3,5-difluorophenyl)ethynyl)pyridine]		10.30	5.74		pKi [1]: 5.85
Cc1cccc(C#Cc2cncc(OC[C@@H]3CCN3)c2)c1 [VMY-2-123, (S)-3-(azetidin-2-ylmethoxy)-5-(m-tolylethynyl)pyridine]	5.40	10.34	6.70		selectivity for α4β2 receptors over α3β4 receptors (Ki ratio) [2]: 87,000 times
CN1CC[C@H]1COc1cncc(C#Cc2ccccc2)c1 [VMY-2-205, (S)-3-((1-methylazetidin-2-yl)methoxy)-5-(phenylethynyl)pyridine]	4.40	8.92	5.11	6.43	binding weaker than VMY-2-95 (fold) ([2]; α4β2 binding affinity relative to (S)-N-H VMY-2-95): ~25 times; pIC50 [5]: 4.66
Clc1cccc(C#Cc2cncc(OC[C@@H]3CCN3)c2)c1 [VMY-2-127, (S)-3-(azetidin-2-ylmethoxy)-5-((3-chlorophenyl)ethynyl)pyridine]	5.47	10.03	6.32		
COc1cc(F)cc(C#Cc2cncc(OC[C@@H]3CCN3)c2)c1 [VMY-2-139, (S)-3-(azetidin-2-ylmethoxy)-5-((3-fluoro-5-methoxyphenyl)ethynyl)pyridine]	5.89	10.12	5.82		
CN(C)c1cc(F)cc(C#Cc2cncc(OC[C@@H]3CCN3)c2)c1 [VMY-2-131, (S)-3-((5-(azetidin-2-ylmethoxy)pyridin-3-yl)ethynyl)-5-fluoro-N,N-dimethylaniline]	6.00	10.51	6.60		
Cc1cc(F)cc(C#Cc2cncc(OC[C@@H]3CCN3)c2)c1 [VMY-2-135, (S)-3-(azetidin-2-ylmethoxy)-5-((3-fluoro-5-methylphenyl)ethynyl)pyridine]	5.96	10.37	6.23		
OCCCCC#Cc1cncc(OC[C@@H]2CCN2)c1 [Sazetidine-A, reference compound]	5.72		5.80	8.12	pKi [2, 9]: 10.21; pIC50 ([4]; listed as Saz-A): 7.92; inhibition of nicotine activation of α4β2 receptors [4, 10]: inhibited; agonist activity at α3β4 nAChRs [5]: does not show agonist activity; pIC50 [5]: < 5.00; effect on the function of rat α3β4 nAChRs ([5]; concentrations up to 10 μM): had no effect; lowest effective dose reducing nicotine self-administration [6]: 3 mg/kg
Fc1ccccc1C#Cc1cncc(OC[C@@H]2CCN2)c1 [VMY-2-105, (S)-3-(azetidin-2-ylmethoxy)-5-((2-fluorophenyl)ethynyl)pyridine]	6.24	10.14	5.96	7.70	
CN1CCCC1c1cccnc1 (centres unmarked) [nicotine, reference compound]					inhibition of nicotine activation of α4β2 receptors [4]: inhibited
Fc1cccc(C#Cc2cncc(OC[C@@H]3CCN3)c2)c1 [VMY-2-109, (S)-3-(azetidin-2-ylmethoxy)-5-((3-fluorophenyl)ethynyl)pyridine]	6.28	10.49	6.14	7.89	
C(#Cc1cncc(OC[C@H]2CCN2)c1)c1ccccc1 [VMY-2-191, (R)-3-(azetidin-2-ylmethoxy)-5-(phenylethynyl)pyridine]	5.77		5.80		pKi [2, 9]: 9.96
FC(F)(F)c1cccc(C#Cc2cncc(OC[C@@H]3CCN3)c2)c1 [VMY-2-117, (S)-3-(azetidin-2-ylmethoxy)-5-((3-(trifluoromethyl)phenyl)ethynyl)pyridine]	5.85	9.59	5.89		selectivity for α4β2 receptors over α3β4 receptors (Ki ratio) [2]: 5,400 times
CCCNCCOc1cncc(C#Cc2ccccc2)c1 [VMY-2-177, N-(2-(5-(phenylethynyl)pyridin-3-yloxy)ethyl)propan-1-amine]	3.07		4.32	4.82	pKi [2, 9]: 5.96; pIC50 [5]: 4.92
C(#Cc1cncc(OCC2CCC2)c1)c1ccccc1 [VMY-2-161, 3-(cyclobutylmethoxy)-5-(phenylethynyl)pyridine]	2.89		3.39	4.46	pKi [2, 9]: 3.80; pIC50 [5]: < 4.00
c1cnc2cc3c(cc2n1)[C@@H]1CNC[C@H]3C1 [varenicline, reference compound]					agonist activity at α4β2 receptors ([4]; 86Rb+ efflux, human α4β2): partial agonist activity; inhibition of nicotine activation of α4β2 receptors [4, 10]: inhibited; agonist activity at α3β4 nAChRs [5]: near-full agonist activity; participants in clinical trials who reported nausea [7]: ~30%; participants in clinical trials who reported vomiting [7]: 18%; percentage of subjects who remained smoke-free for 12 months following treatment [7]: ~22%
